Reference: publication PMC9669214 (Biochemistry, 2022)

Target: GacI-PP (Streptomyces glaucescens, UniProt B0B0T9)
Assay: LC-Q-TOF-MS of product V1P
Assay type: biochemical
Details: V1,7PP 1 mM, Tris-HCl 20 mM pH 7.5, 30 °C

## O=P(O)(O)OCC1=CC(OP(=O)(O)O)C(O)C(O)C1O (stereo not shown) [compound 8, V1,7PP]
  LC-Q-TOF-MS of product V1P; MESG/PNP initial velocity: The protein was then incubated with V1,7PP and the formation of V1P was confirmed
